Results as given in ChEMBL document CHEMBL4610114, “Fragment-Based Discovery of Pyrazolopyridones as JAK1 Inhibitors with Excellent Subtype Selectivity” (J Med Chem, 2020).
In brackets after ≈: the same amount, converted by molar mass.

Key:
[1] = target: Non-receptor tyrosine-protein kinase TYK2 (Homo sapiens, UniProt P29597)
[2] = target: T1, Tyrosine-protein kinase JAK2 (Homo sapiens, UniProt O60674)
[3] = target: T2, Tyrosine-protein kinase JAK1 (Homo sapiens, UniProt P23458)
[4] = target: T2, Tyrosine-protein kinase JAK1; remark: listed apart in the source
Description: Inhibition of JAK1 in human STAT6-bla-RA1 cells assessed as reduction in IL4-induced STAT6-signalling pre-incubated for 1 hrs before human recombinant IL4 addition and further incubated for 4 hrs fluorescence based assay

physchem [5] = conditions: octanol/water
Description: Lipophilicity, logD of the compound by shake flask assay

physchem [6] = conditions: PBS buffer, pH 7.4
Description: Aqueous solubility in PBS buffer at pH 7.4 by HPLC analysis

[7] = target: T3, Tyrosine-protein kinase JAK3 (Homo sapiens, UniProt P52333)
T3 sequence (P52333 whole entry): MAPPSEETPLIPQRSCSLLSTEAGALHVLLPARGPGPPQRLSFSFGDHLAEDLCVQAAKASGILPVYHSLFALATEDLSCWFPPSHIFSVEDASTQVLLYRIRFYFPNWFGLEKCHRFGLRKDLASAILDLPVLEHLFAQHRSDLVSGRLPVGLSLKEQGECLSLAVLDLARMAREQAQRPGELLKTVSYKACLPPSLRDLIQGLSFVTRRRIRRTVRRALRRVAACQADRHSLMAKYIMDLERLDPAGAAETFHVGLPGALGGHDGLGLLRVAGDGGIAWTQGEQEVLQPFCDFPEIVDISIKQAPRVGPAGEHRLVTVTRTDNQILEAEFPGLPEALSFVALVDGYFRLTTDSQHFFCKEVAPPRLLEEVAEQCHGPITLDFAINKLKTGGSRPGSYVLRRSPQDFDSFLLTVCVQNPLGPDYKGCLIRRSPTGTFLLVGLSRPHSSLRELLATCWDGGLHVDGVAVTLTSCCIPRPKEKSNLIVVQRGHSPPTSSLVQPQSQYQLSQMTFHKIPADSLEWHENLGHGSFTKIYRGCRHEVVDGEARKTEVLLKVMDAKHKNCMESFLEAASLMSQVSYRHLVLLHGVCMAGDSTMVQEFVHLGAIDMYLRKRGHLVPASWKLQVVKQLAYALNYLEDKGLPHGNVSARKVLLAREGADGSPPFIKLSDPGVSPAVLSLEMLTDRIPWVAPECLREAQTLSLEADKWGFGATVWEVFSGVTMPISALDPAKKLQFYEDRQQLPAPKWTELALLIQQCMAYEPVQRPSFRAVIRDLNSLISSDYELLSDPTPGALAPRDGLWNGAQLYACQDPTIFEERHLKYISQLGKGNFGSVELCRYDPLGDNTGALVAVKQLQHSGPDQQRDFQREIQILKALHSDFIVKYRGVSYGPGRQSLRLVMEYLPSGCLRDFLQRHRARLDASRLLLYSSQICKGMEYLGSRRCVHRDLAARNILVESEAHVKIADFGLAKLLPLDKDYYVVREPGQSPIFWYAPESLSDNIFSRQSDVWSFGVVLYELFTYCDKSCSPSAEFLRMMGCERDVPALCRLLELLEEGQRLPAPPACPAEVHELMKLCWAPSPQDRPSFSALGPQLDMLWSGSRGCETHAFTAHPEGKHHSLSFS

[8] = target: T1, Tyrosine-protein kinase JAK2; remark: listed apart in the source
Description: Inhibition of JAK2 in human STAT5-irf1-bla TF1 cells assessed as reduction in EPO-induced STAT5-signalling pre-incubated for 1 hrs before EPO addition and further incubated for 4 hrs fluorescence based assay

in vitro = conditions: human, liver microsomes
Description: Apparent intrinsic clearance in human liver microsomes

T1 sequence (O60674 whole entry): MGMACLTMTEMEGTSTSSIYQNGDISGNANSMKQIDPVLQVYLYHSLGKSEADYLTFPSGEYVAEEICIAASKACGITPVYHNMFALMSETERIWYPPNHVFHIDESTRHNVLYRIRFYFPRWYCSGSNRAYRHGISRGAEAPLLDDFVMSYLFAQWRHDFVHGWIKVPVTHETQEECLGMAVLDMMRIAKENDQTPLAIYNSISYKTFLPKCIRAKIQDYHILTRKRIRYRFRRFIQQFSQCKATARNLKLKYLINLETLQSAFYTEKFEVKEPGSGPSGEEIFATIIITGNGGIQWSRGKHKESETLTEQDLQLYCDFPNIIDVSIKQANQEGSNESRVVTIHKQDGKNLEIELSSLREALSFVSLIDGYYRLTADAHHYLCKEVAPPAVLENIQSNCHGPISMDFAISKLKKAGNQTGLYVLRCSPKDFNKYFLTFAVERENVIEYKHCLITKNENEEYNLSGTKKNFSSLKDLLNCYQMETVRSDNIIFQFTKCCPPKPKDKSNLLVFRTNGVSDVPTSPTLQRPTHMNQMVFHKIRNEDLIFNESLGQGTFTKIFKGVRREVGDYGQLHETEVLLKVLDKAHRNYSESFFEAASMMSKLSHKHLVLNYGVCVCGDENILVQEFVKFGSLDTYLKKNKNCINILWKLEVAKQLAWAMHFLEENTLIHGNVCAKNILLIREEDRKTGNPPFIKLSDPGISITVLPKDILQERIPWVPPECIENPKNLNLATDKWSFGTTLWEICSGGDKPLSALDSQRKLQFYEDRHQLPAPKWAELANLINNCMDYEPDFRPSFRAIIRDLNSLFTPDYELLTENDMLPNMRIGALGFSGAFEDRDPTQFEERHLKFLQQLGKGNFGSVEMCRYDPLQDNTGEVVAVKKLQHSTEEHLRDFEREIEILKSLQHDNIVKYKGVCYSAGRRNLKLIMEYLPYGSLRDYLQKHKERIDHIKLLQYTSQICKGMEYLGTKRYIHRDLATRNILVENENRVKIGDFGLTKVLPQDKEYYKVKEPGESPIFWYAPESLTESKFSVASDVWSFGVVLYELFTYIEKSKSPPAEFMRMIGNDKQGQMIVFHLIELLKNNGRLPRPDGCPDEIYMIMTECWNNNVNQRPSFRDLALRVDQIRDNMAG
T2 sequence (P23458 whole entry): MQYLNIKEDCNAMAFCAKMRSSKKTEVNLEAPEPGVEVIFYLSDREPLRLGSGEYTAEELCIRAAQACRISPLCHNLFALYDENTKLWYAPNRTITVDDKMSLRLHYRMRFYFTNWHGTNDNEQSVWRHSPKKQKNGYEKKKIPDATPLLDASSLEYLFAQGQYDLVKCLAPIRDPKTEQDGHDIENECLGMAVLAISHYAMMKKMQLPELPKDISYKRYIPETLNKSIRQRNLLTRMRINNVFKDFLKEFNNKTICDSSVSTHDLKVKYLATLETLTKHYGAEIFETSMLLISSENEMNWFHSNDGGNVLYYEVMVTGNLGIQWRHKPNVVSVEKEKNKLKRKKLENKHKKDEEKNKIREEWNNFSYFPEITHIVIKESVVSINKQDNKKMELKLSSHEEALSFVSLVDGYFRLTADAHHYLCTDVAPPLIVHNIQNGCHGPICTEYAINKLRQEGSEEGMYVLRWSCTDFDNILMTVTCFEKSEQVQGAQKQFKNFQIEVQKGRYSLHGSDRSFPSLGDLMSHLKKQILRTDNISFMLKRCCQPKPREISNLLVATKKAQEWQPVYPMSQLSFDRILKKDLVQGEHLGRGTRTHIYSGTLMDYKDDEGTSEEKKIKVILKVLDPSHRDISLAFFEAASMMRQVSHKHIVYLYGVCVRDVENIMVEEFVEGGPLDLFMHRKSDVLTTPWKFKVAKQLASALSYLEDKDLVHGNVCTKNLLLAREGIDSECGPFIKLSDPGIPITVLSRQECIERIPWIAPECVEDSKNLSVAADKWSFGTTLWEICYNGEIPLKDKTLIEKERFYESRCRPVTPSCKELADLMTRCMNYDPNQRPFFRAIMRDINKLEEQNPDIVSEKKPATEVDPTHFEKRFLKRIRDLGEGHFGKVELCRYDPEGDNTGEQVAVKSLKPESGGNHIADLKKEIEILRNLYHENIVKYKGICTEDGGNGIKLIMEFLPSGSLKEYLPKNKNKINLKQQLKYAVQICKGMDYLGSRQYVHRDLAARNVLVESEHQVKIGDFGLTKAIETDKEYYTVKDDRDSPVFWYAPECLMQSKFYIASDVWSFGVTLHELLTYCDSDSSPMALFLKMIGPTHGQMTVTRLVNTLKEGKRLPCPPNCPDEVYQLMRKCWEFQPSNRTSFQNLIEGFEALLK
Non-receptor tyrosine-protein kinase TYK2, sequence (P29597 whole entry): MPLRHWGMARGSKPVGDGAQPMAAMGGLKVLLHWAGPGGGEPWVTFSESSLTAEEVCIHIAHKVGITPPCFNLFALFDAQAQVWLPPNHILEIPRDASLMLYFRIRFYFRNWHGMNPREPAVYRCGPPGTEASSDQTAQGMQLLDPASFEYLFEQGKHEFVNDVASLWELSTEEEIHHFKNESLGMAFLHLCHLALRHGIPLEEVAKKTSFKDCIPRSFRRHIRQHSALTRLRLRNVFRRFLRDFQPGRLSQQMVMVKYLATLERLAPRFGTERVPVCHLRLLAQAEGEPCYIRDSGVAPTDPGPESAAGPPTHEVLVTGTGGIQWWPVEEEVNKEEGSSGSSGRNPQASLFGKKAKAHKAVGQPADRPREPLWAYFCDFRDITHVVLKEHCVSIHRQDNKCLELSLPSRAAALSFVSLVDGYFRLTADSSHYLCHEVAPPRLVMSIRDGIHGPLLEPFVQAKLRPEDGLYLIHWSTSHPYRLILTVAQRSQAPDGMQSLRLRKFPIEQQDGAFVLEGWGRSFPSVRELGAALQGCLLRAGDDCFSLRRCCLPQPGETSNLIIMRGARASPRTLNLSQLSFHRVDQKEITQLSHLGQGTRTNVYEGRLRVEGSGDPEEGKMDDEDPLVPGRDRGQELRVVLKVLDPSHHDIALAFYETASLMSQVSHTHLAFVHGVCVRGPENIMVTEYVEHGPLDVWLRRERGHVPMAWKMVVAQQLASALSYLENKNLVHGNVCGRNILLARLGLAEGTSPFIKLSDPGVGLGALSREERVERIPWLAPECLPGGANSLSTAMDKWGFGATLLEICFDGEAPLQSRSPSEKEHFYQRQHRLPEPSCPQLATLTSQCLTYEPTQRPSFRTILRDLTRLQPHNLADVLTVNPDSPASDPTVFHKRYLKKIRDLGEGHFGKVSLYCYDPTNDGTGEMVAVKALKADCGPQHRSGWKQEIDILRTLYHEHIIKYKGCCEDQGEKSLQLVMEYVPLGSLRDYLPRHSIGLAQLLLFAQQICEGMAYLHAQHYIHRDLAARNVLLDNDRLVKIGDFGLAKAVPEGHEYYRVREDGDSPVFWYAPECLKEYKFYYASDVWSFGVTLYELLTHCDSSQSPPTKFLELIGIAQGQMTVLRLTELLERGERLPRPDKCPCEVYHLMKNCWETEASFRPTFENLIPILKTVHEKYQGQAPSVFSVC

IC50 [1] [nM]	IC50 [2] [nM]	IC50 [3] [nM]	IC50 [4] [nM]	logD (physchem [5])	solubility (physchem [6]) [µM]	IC50 [7] [nM]	IC50 [8] [nM]	CLint scaled (in vitro) [mL/min/kg]	Structure (SMILES)
130	360	40	1200	1.5	59 (≈ 15.9 µg/mL)	270	> 40000	–	Cc1[nH]nc2[nH]c(=O)cc([C@H]3CC[C@H](CC#N)CC3)c12
–	–	> 500000	–	–	–	–	–	–	Cc1cc(=O)[nH]c2nn(C)c(C)c12
2800	2100	220	> 14000	1.2	22 (≈ 6.92 µg/mL)	7000	> 14000	–	Cc1[nH]nc2[nH]c(=O)cc([C@H]3CC[C@H](NC(=O)C4CC4)CC3)c12
–	2700	460	2500	3	–	1600	> 40000	–	CCc1[nH]nc2[nH]c(=O)cc(C3CCCCC3)c12
700	340	40	1300	3	8 (≈ 1.96 µg/mL)	110	8900	–	Cc1[nH]nc2[nH]c(=O)cc([C@H]3CCCC[C@H]3C)c12 (racemic)
430	430	46	850	2.8	64 (≈ 15.6 µg/mL)	240	22000	–	Cc1[nH]nc2[nH]c(=O)cc([C@H]3C[C@H]4CC[C@@H]3C4)c12 (racemic)
–	–	> 900000	–	–	–	–	–	–	Cc1cc(O)nc2c1c(C)nn2C
1100	570	120	3400	2.2	16 (≈ 3.48 µg/mL)	480	> 40000	–	Cc1[nH]nc2[nH]c(=O)cc(CC3CCC3)c12
–	–	> 100000	–	–	–	–	–	–	O=c1cc(C(F)F)c2c[nH]nc2[nH]1
220	120	6.4	1700	1.3	43 (≈ 15.1 µg/mL)	480	> 7000	–	Cc1[nH]nc2[nH]c(=O)cc([C@H]3CC[C@H](NC(=O)[C@@H]4CC4(F)F)CC3)c12
3400	3900	490	8500	2.6	11 (≈ 3.03 µg/mL)	990	> 40000	–	Cc1[nH]nc2[nH]c(=O)c(CCO)c(C3CCCCC3)c12
6800	1600	110	9100	–	–	4800	> 30000	–	Cc1[nH]nc2[nH]c(=O)cc([C@H]3CC[C@H](NC(=O)C4CCCC4)CC3)c12
–	19	2.1	110	3	–	63	2400	75	Cc1[nH]nc2[nH]c(=O)cc([C@H]3CC[C@H](CC(=O)N4CCC(c5ccccc5)C4)CC3)c12 (mixture of isomers)
–	–	3	250	3	2.4 (≈ 1 µg/mL)	88	–	87	Cc1[nH]nc2[nH]c(=O)cc([C@H]3CC[C@H](CC(=O)N4CC(Cc5ccccc5)C4)CC3)c12
16000	18000	820	> 40000	–	–	11000	> 40000	–	Cc1[nH]nc2[nH]c(=O)cc([C@H]3CC[C@H](N)CC3)c12
830	13000	72	4300	2.2	39 (≈ 8.47 µg/mL)	670	> 40000	–	Cc1[nH]nc2[nH]c(=O)cc(C3CCCC3)c12
220	330	54	890	3.3	8 (≈ 2.06 µg/mL)	65	9100	–	Cc1[nH]nc2[nH]c(=O)cc(C3CC4CCC3CC4)c12 (racemic)
24000	35000	15000	> 50000	–	–	12000	–	–	O=c1cc(C2CCCCC2)c2c[nH]nc2[nH]1

IC50 [1] [nM]	IC50 [2] [nM]	IC50 [3] [nM]	IC50 [4] [nM]	logD (physchem [5])	solubility (physchem [6]) [µM]	IC50 [7] [nM]	IC50 [8] [nM]	CLint scaled (in vitro) [mL/min/kg]	Structure (SMILES)
4200	–	490	20000	0.8	> 85	1700	–	–	Cc1[nH]nc2[nH]c(=O)cc([C@H]3CC[C@H](O)CC3)c12
150	380	44	1000	2.7	33 (≈ 8.03 µg/mL)	180	> 40000	–	Cc1[nH]nc2[nH]c(=O)cc([C@@H]3C[C@H]4CC[C@@H]3C4)c12 (racemic)
–	–	30000	–	–	–	–	–	–	Cc1cc(=O)[nH]c2n[nH]c(C)c12
11000	17000	2100	20000	–	–	5400	> 40000	–	Cc1[nH]nc2[nH]c(=O)c(C#N)c(C3CCCCC3)c12
–	–	730	–	–	–	11000	–	–	Cc1[nH]nc2[nH]c(=O)cc([C@H]3CC[C@H](C#N)CC3)c12
670	1300	130	3700	2.8	4 (≈ 0.925 µg/mL)	550	> 40000	–	Cc1[nH]nc2[nH]c(=O)cc(C3CCCCC3)c12
–	570	40	3200	–	–	1700	> 10000	–	Cc1[nH]nc2[nH]c(=O)cc([C@H]3CC[C@H](NS(=O)(=O)CC4CCC4)CC3)c12
650	2800	140	4800	2.1	100 (≈ 26.1 µg/mL)	1400	> 40000	–	Cc1[nH]nc2[nH]c(=O)c(CO)c(C3CCCCC3)c12
180	93	–	–	–	–	420	15000	–	Cc1[nH]nc2[nH]c(=O)cc([C@@H]3C[C@@H]4C[C@H]3C[C@H]4CC#N)c12
–	120	14	420	–	3 (≈ 1.05 µg/mL)	91	> 25000	–	Cc1[nH]nc2[nH]c(=O)cc([C@H]3CC[C@H](OC(=O)[C@@H]4CC4(F)F)CC3)c12
–	2500	400	–	–	–	6600	–	–	Cc1[nH]nc2[nH]c(=O)cc([C@H]3CC[C@H](NS(=O)(=O)C4CC4)CC3)c12
3900	4200	2200	> 50000	2.2	> 90	2600	–	–	Cc1[nH]nc2[nH]c(=O)cc(-c3ccccc3)c12
2700	1700	78	> 40000	1.3	29 (≈ 10.2 µg/mL)	2700	> 40000	–	Cc1[nH]nc2[nH]c(=O)cc([C@H]3CC[C@H](NC(=O)[C@H]4CC4(F)F)CC3)c12
1600	1300	500	1800	3.1	–	980	> 40000	–	O=c1cc(C2CCCCC2)c2c(C3CC3)[nH]nc2[nH]1
14000	9400	2000	> 40000	–	–	1100	> 40000	–	Cc1[nH]nc2[nH]c(=O)cc([C@H]3CC[C@H](C(=O)NC4CC4)CC3)c12
–	–	–	–	2	–	–	–	–	CCCS(=O)(=O)N[C@H]1C[C@@H](N(C)c2ncnc3[nH]ccc23)C1 [ABROCITINIB]
–	160	32	1200	1.8	18 (≈ 5.12 µg/mL)	280	13000	–	Cc1[nH]nc2[nH]c(=O)cc([C@H]3CC[C@H](CCC#N)CC3)c12
–	32	3.4	110	2.9	–	57	3400	70	Cc1[nH]nc2[nH]c(=O)cc([C@H]3CC[C@H](CC(=O)N4CCC(C)(C)CC4)CC3)c12
